# Values quoted from earlier work, collected in US6858221B2, “Intravascular delivery of mycophenolic acid” (Avantec Vascular Corporation, priority 2000, dated 2005).
# Tested on: Human SMC
# Conditions: dose range 0.1 nM-1 μM, Mohacsi et al. 1997
smiles,measurement,value
"CO[C@H]1C[C@@H]2CC[C@@H](C)[C@@](O)(O2)C(=O)C(=O)N2CCCC[C@H]2C(=O)O[C@H]([C@H](C)C[C@@H]2CC[C@@H](O)[C@H](OC)C2)CC(=O)[C@H](C)/C=C(\C)[C@@H](O)[C@@H](OC)C(=O)[C@H](C)C[C@H](C)/C=C/C=C/C=C/1C [Rapamycin, rapamycin]",IC50,1 nM
